No end group written: not given here.
What was measured:
[1] = R9-GFP11 dot blot assay (anti-GFP11) of leaf lysates, tissue stability; format: in vivo, Nicotiana benthamiana; conditions: 500 μM in water infiltrated, in situ, 0, 4, 8, 24 h; 12 mm disc lysed in RIPA, dot blot anti-GFP11, N = 6
Description: We infiltrated leaves with 500 μM R9-GFP11 and left the plants to incubate in situ. A higher concentration of R9-GFP11 was chosen to facilitate detection by immunoblotting. After 0, 4, 8, and 24 h of incubation, a single 12 mm leaf disc was harvested and lysed for each treatment. Two microliters of lysates were then spotted onto nitrocellulose for dot blot analysis[42] using a primary antibody raised against GFP11. […] The reduction at 24 h in the sfGFP signal is indicative of the combined intracellular and extracellular turnover of GFP11 becoming higher than the rate of delivery and complementation. […] We hypothesize that similar dynamics from apoplastic proteases[45] and intracellular degradation are at play in plants.
The third or fourth leaf of 4–5-week-old wild-type N. benthamiana was infiltrated with 500 μM R9-GFP11 in water using a needless syringe. Infiltrations were staggered such that all treatments could be harvested simultaneously for 0, 4, 8, and 24 h time points. Each treatment was performed on a separate plant and the experiment was repeated thrice. A 12 mm leaf disc was excised for each treatment using a leaf punch and flash frozen in liquid nitrogen before grinding and lysis in 20 μL RIPA buffer with 1x plant protease inhibitor cocktail (Sigma-Aldrich: P9599). The lysates were then clarified by centrifugation at 21,000 × g for 30 min. […]

[2] = test system: DCIP-expressing leaves (intact); experiment: DCIP in attached, intact leaves incubated in situ; format: cell-based, Nicotiana benthamiana
Description: We next confirmed that DCIP is capable of detecting successful delivery in attached, intact leaves instead of leaf discs. DCIP-expressing leaves were thus infiltrated with 100 μM R9-GFP11 solutions and allowed to incubate in situ. During this time, the infiltrated liquid would dry, rendering the effective treatment concentration difficult to compare to the above leaf disc assays. We then assessed the amount of sfGFP complementation at 4 or 24 h post infiltration with 100 μM R9-GFP11 (Fig. 4a). […] We also tested whether or not 24 h-treated cells were still competent to R9-mediated delivery; we retreated a previously 24H treated leaf with 100 μM R9-GFP11, and imaged 4 h post re-treatment. […] The limited fluorescence recovery with re-treatment could be due to an induced stress response that decreases the cell wall permeability.
Three days after agroinfiltration, DCIP-expressing leaves were infiltrated with the treatment solutions. Unless otherwise stated, an 8 mm punch was then excised from the infiltrated area and plated, abaxial side up, onto ½ MS pH 5.7 agar plates. The plates were then left to incubate under ambient conditions for 4–5 h before imaging. For cold temperature treatment, after infiltration with ice-cold solutions of R9-GFP11 and disc excision, the leaf discs were plated onto ice-cold agar and immediately transferred to a 4 °C refrigerator for incubation. After incubation, the agar plates with leaf discs were kept on ice until the moment of imaging. For in situ incubation, leaves were simply infiltrated and the plant was returned to the growing chamber for incubation. […]
Excised leaf discs were imaged on a Zeiss LSM880 laser scanning confocal microscope. Images for semi-quantitative analysis were collected using a ×20/1.0NA Plan-apochromat water immersion objective and larger field-of-views were collected using a ×5 objective. […] For quantification experiments, z-stacks were acquired with the imaging depth set to capture the epidermal layer down to the point where mCherry nuclei could no longer be detected. z-stacks from four fields of view were acquired for every treatment condition. Quantitative image analysis and downstream processing was performed using Cell Profiler 3.0. […] Cell Profiler was then used to quantify the number, mCherry intensity, GFP intensity, and red (mCherry)/green (sfGFP) ratio of the projected nuclei.
Data obtained from Cell Profiler was processed using a script written in Python 3.9. Using the Cell Profiler data, GFP positive nuclei were counted using a Python script by setting a threshold defined as a one-tailed 99% confidence interval above the mean green/red ratio in the untreated control or water infiltration control of each experiment. […]

## RRRRRRRRRGSGSRDHMVLHEYVNAAGIT [R9-GFP11]
[1]
  time until recovered/tissue-localized peptide returns to level of non-treated control (clearance from leaf tissue): ≤ 24 h
[2]; 100 μM, intact leaves in situ
  time to disappearance of GFP complementation (DCIP) signal: ≤ 24 h
[2]; 100 μM, intact leaves in situ, N = 5
  percentage of sfGFP positive cells, 4 h post infiltration: relatively high percentage of sfGFP positive cells
[2]; 100 μM, intact leaves in situ, N = 5, not statistically different from non-treated control
  percentage of sfGFP-positive cells, 24 h post infiltration: returned nearly to baseline
[2]; re-treated with 100 μM, imaged 4 h post re-treatment
  delivery after re-treatment of a 24 h treated leaf: some instances of successful delivery

From article PMC10423278, “Delivered complementation in planta (DCIP) enables measurement of peptide-mediated protein delivery efficiency in plants” (Communications Biology, 2023)
